Data reported in ChEMBL document CHEMBL3882390, “Method for selectively inhibiting ACAT1 in the treatment of neurodegenerative diseases” (2014).
Each block holds one compound with its values, some of them ahead of it. Active and inactive are the calls of the source. The rule behind the calls is not given here.

Legend:
Homo sapiens = species: Homo sapiens; experiment: Selectivity ratio of IC50 for human ACAT2 to IC50 for human ACAT1
[1] = biological target: T1, Sterol O-acyltransferase 2 (Homo sapiens, UniProt O75908); experiment: Inhibition of human ACAT2
T1 sequence (O75908 whole entry): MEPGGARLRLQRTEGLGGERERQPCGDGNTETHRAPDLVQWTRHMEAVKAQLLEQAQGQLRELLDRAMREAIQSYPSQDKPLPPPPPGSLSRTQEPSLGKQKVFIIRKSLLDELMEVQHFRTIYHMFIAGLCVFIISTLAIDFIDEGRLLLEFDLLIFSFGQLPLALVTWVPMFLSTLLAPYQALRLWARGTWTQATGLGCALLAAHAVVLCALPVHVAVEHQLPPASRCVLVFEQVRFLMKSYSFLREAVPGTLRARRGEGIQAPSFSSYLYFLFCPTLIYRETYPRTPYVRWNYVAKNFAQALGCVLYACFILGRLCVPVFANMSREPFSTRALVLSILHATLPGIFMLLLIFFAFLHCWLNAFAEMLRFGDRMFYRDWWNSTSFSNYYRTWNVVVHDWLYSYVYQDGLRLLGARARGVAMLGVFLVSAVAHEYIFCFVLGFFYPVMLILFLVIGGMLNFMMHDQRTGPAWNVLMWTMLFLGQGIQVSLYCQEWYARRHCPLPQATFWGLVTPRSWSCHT

[2] = biological target: T2, Sterol O-acyltransferase 1 (Homo sapiens, UniProt P35610); experiment: Inhibition of human ACAT1
T2 sequence (P35610 whole entry): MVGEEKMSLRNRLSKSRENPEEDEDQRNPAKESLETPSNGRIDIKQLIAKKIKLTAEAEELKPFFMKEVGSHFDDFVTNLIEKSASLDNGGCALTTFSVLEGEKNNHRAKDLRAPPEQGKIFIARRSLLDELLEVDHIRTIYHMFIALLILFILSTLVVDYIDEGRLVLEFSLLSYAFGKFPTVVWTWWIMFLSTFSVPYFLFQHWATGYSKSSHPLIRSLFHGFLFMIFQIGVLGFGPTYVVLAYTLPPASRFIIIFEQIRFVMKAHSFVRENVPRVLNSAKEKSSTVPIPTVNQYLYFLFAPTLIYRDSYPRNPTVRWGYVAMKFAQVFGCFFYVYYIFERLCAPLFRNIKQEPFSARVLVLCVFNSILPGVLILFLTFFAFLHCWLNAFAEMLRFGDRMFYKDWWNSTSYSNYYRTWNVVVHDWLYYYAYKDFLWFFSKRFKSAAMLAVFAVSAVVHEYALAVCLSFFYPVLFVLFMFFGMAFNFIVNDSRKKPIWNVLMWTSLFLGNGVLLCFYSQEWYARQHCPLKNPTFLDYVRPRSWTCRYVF

[3] = biological target: T1, Sterol O-acyltransferase 2; experiment: Inhibition of ACAT2 (unknown origin)
[4] = biological target: T3, Sterol O-acyltransferase 2 (Homo sapiens) (UniProt O75908); experiment: Inhibition of human ACAT2 at 1 mM
T3 sequence (whole entry): T1 sequence (O75908 whole entry)

[5] = biological target: T4, Sterol O-acyltransferase 2 (Chlorocebus aethiops, UniProt O77759); experiment: Inhibition of African green monkey ACAT2 expressed in mouse AC29 cells assessed as reduction in esterification of NBD-cholesterol preincubated for 20 mins followed by NBD-cholesterol addition measured after 6 hrs by high-performance TLC method; format: cell-based
T4 sequence (O77759 whole entry): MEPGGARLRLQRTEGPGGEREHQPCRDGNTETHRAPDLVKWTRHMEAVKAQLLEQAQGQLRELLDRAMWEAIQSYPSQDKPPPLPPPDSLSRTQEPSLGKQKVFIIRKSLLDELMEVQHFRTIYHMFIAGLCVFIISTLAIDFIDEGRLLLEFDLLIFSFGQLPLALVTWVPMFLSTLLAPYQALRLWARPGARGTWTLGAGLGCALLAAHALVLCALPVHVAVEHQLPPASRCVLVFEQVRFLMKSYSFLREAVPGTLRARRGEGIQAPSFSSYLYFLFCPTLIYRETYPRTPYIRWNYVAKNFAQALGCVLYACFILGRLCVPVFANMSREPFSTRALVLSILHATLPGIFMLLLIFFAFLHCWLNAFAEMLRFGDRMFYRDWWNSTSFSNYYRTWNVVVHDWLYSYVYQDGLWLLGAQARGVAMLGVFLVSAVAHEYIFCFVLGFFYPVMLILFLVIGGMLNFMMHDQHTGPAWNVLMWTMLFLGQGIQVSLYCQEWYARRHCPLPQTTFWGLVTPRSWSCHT

[6] = biological target: T5, Sterol O-acyltransferase 1 (Mus musculus) (UniProt Q61263); experiment: Inhibition of ACAT1 in mouse N9 cells assessed as increase in late endosomes/lysosomes volume measured after 8 hrs by Lyso tracker staining based flow cytometry relative to control; format: cell-based; details: concentration not given here
T5 sequence (whole entry): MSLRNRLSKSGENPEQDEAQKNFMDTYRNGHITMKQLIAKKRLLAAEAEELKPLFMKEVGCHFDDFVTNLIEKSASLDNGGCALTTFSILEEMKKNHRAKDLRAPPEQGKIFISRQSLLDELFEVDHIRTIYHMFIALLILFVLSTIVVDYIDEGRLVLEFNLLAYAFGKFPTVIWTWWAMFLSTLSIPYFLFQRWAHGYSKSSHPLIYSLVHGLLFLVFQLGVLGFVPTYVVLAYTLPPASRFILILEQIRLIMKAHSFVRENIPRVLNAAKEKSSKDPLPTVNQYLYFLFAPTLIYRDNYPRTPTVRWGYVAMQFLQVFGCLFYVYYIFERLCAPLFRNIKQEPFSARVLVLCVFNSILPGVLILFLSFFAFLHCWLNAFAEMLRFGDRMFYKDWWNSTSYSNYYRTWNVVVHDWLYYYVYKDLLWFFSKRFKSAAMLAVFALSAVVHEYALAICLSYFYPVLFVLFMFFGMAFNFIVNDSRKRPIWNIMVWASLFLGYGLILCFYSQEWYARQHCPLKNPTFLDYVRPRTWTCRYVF

[7] = biological target: T5, Sterol O-acyltransferase 1 (Mus musculus); experiment: Inhibition of ACAT1 in mouse N9 cells assessed as effect on autophagosome formation by measuring LC3-2 levels in presence of squalene synthase inhibitor CP-340868; format: cell-based
[8] = biological target: T5, Sterol O-acyltransferase 1 (Mus musculus); experiment: Inhibition of ACAT1 in mouse N9 cells assessed as effect on […] by measuring p62 levels in presence of Torin-1 by Western blot analysis; format: cell-based
[9] = biological target: T5, Sterol O-acyltransferase 1 (Mus musculus); experiment: Inhibition of ACAT1 in mouse N9 cells at 0.1 uM measured after 8 hrs by Lyso tracker staining based flow cytometry relative to control; format: cell-based
[10] = biological target: T5, Sterol O-acyltransferase 1 (Mus musculus); experiment: Inhibition of ACAT1 in mouse N9 cells assessed as increase in autophagic flux by measuring LC3-2 levels in presence of Torin-1 by Western blot analysis; format: cell-based
[11] = biological target: T5, Sterol O-acyltransferase 1 (Mus musculus); experiment: Inhibition of ACAT1 in mouse N9 cells assessed as increase in Cys-amyloid beta 1 to 42 uptake pretreated for 8 hrs followed by Cys-amyloid beta 1 to 42 addition measured after 3 hrs by flow cytometry relative to control; format: cell-based; design: scale not given: the % may be the effect or the level left
[12] = biological target: T5, Sterol O-acyltransferase 1 (Mus musculus); experiment: Inhibition of ACAT1 in mouse N9 cells assessed as induction of autophagy by measuring LC3-2 at 0.1 uM by Western blot analysis; format: cell-based
[13] = biological target: T5, Sterol O-acyltransferase 1 (Mus musculus); experiment: Inhibition of ACAT1 in mouse N9 cells assessed as increase in TFEB target genes mRNA expression measured after 8 hrs by qPCR analysis; format: cell-based
[14] = biological target: T5, Sterol O-acyltransferase 1 (Mus musculus); experiment: Inhibition of ACAT1 in TFEB knock-down mouse N9 cells assessed as autophagosome formation by measuring LC3-2 levels; format: cell-based
[15] = biological target: T5, Sterol O-acyltransferase 1 (Mus musculus); experiment: Inhibition of ACAT1 in wild type mouse microglia assessed as increase in clearance of oligomeric amyloid beta at 1 uM pretreated for 24 hrs followed by oligomeric amyloid beta addition measured after 18 hrs by western blot analysis relative to control
[16] = biological target: T5, Sterol O-acyltransferase 1 (Mus musculus); experiment: Inhibition of ACAT1 in mouse N9 cells assessed as reduction in oligomeric amyloid beta 1 to 42 pretreated for 24 hrs followed by oligomeric amyloid beta 1 to 42 addition measured after 12 hrs by Western blot analysis relative to control; format: cell-based; details: concentration not given here
[17] = biological target: T5, Sterol O-acyltransferase 1 (Mus musculus); experiment: Inhibition of ACAT1 in mouse N9 cells; format: cell-based
[18] = biological target: T5, Sterol O-acyltransferase 1 (Mus musculus); experiment: Inhibition of ACAT1 in mouse N9 cells assessed as increase in lysosome biogenesis by measuring Lyso tracker fluorescence measured after 8 hrs by Lyso tracker staining based flow cytometry; format: cell-based
Mus musculus [19] = experiment: Reduction in brain cholesteryl esters in C57BL/6 mouse overexpressing human APP751 with London (V717I) and Swedish ([…]) mutation administered as pellets into bloodstream; format: functional
Mus musculus [20] = experiment: Reduction in membrane/insoluble amyloid beta level in C57BL/6 mouse overexpressing human APP751 with London (V717I) and Swedish ([…]) mutation administered as pellets into bloodstream; format: functional
Mus musculus [21] = experiment: Reduction in soluble amyloid beta42 in brain homogenates of C57BL/6 mouse overexpressing human APP751 with London (V717I) and Swedish ([…]) mutation administered as pellets into bloodstream; format: functional
Mus musculus [22] = experiment: Reduction in accumulation of amyloid plaque in C57BL/6 mouse overexpressing human APP751 with London (V717I) and Swedish ([…]) mutation administered as pellets into bloodstream; format: functional
[23] = biological target: T4, Sterol O-acyltransferase 2; experiment: Inhibition of African green monkey ACAT2 expressed in CHO cells assessed as reduction in [14C]CE formation using [1-14C]oleoyl-CoA measured after 6 hrs by TLC method; format: cell-based

Ratio IC50 (Homo sapiens): 4 | IC50 [1]: 170 µM | IC50 [2]: 44 µM
Compound: CCOC(=O)OC(=O)OCC [DIETHYL PYROCARBONATE]

IC50 [3]: 0.11 µM
Compound: CCCCCCCCCCCCS[C@H](C(=O)Nc1cc(C)c(O)c(C)c1C)c1ccccc1 [EFLUCIMIBE]

inhibition [4]: 32%
Compound: COc1ccc([C@@H](O)[C@@H](C)Oc2ccc([C@H]3O[C@H](c4ccc(O[C@H](C)[C@H](O)c5ccc6c(c5)OCO6)c(OC)c4)[C@H](C)[C@H]3C)cc2OC)cc1OC

IC50 [5]: 0.53 µM
Compound: CC(C)c1cccc(C(C)C)c1NC(=O)CC(=O)C(Cc1ccccc1)Cc1ccc(OC(=O)CCCCCCN2CCCCCC2=O)cc1 (centres undefined)

inhibition [6]: 27% | inhibition [7]: Active | inhibition [8]: Active | inhibition [9]: 80% | inhibition [10]: Active | Activity [11]: 23% | inhibition [12]: Active | inhibition [13]: Active | inhibition [14]: Active | inhibition [15]: < 65% | inhibition [16]: 58% | inhibition [17]: Dose-dependent effect | inhibition [18]: Active
Compound: CSc1cc(C)nc(SC)c1NC(=O)CN1CCN(CCSc2nc3ccccc3[nH]2)CC1

Compound: CCCCCCCC[C@H](SCCCCCC)C(=O)Nc1c(SC)cc(C)nc1SC
inhibition (INH) (Mus musculus [19]): 86% | inhibition (INH) (Mus musculus [20]): 83 - 96% | inhibition (INH) (Mus musculus [21]): 34% | inhibition (INH) (Mus musculus [22]): 88 - 99%

IC50 [23]: 20 µM
Compound: CCCC[C@H](C)[C@@H]1CC(=O)N[C@@H](Cc2ccccc2)C(=O)N[C@@H](C)C(=O)N[C@H](CC(C)C)C(=O)O1 [BEAUVERIOLIDE I]
